The text below walks through data of patent publication US20230143751A1, “Aromatic Compound And Use Thereof In Preparing Antineoplastic Drugs” (Shanghai Zheye Biotechnology Co. Ltd., priority 2020, published 2023).

pIC50: −log10 of the molar value.

One data set has as its system NCI-H358 cells. The experiment in a line: Cell proliferation activity of NCI-H358 by CellTiter-Glo reagent. The format is cell-based. The conditions noted are these: Homo sapiens, NCI-H358; test 8, method of test 3; read-out: IC50 of proliferation inhibitory activity of the compound on NCI-H358 cell line. Summed up:
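NCI-H358 cells seeded at 2000–3000 per well and grown overnight at 37° C, 5% CO2 before compound exposure. Viability read by CellTiter-Glo luminescence; IC50 from curve fitting.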
On the technique in general: In ATP-based viability assays light output follows the ATP content of the culture.

Data set [1] relates to MIA PaCa-2-derived xenograft tumor. Put plainly: Pharmacodynamics test of MIA PaCa-2-derived xenograft tumor model in nude mice (test 6). It is filed as in vivo.
Data set [2] in a line: Preliminary safety test, 5-day escalating oral dosing in Balb/c mice. The format is in vivo.

As to `C=CC(=O)N1CCN(c2nc(=O)n(-c3c(C)ccnc3C(C)C)c3nc(-c4ccccc4C=C)c(Cl)cc23)[C@@H](C)C1` [Compound 3-2], the pIC50 in the data set with NCI-H358 cells is 8.00. Moreover, the “inhibition effect on the growth of subcutaneously transplanted tumors derived from pancreatic cancer MIA paca-2 cells in nude mice (in words)” value in data set [1] (10 mg/kg QD×15 days) is on record as “significant inhibition effect”. Besides, the “Tumor inhibition rate (%)” value in data set [1] (MIA PaCa-2 xenograft, nude mice, 10 mg/kg oral gavage QD×15 days) is reported as “+++ (“+++” represents a tumor inhibition rate of >80%)”. Also, in data set [2] (both sexes, mouse, in vivo, oral gavage, 5 days, initially suggested, read-out: maximum tolerated dose), the MTD at 5 days was > 800 mg/kg. For the same molecule, in data set [2] (oral gavage once a day for 5 days, 200 to 800 mg/kg), the “water and food intake, activity and body weight during the administration period (in words)” value is on record as “no significant abnormality was showed”.
